# Data: patent US10544130B2, “Metallo-beta-lactamase inhibitors” (priority 2015, dated 2020)
# Tested on: Pseudomonas aeruginosa PAO1 MB9798 (efflux+, IMP-1)
# Settings: ratio MITC95 PA 9798/MITC95 PA 9799; imipenem at 2 μg/mL
# Procedure, shortened: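 Isogenic PAO1 pair (efflux+ MB9798, efflux− MB9799, both IMP-1) tested by microbroth MIC with fixed imipenem and/or ceftazidime, usually at CLSI breakpoint, plus fixed class A/C inhibitor against AmpC. MBL inhibitor titrated; concentration restoring susceptibility recorded and fold difference between strains taken as efflux extent.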
row,SMILES,Efflux ratio
1,"CN1CCC(N(C)S(=O)(=O)c2ccc(-c3cccc4sc(N)nc34)c(-c3nnn[nH]3)c2S(N)(=O)=O)C1 (stereo not drawn) [Example 54, 4-(2-amino-1,3-benzothiazol-4-yl)-N1-methyl-N^1-(1-methylpyrrolidin-3-yl)-3-(1H-tetrazol-5-yl)benzene-1,2-disulfonamide]",2.00
2,"NC[C@H]1CCN(S(=O)(=O)c2ccc(-c3cccc4sc(N)nc34)c(-c3nnn[nH]3)c2S(N)(=O)=O)C1 [Example 74, 3-(2-amino-1,3-benzothiazol-4-yl)-6-{[(3R)-3-(aminomethyl)pyrrolidin-l-yl]sulfonyl}-2-(1H-tetrazol-5-yl)benzenesulfonamide]",1.00
3,"NC[C@@H](O)CNS(=O)(=O)c1ccc(-c2cccc3[nH]c(N)nc23)c(-c2nn[nH]n2)c1S(N)(=O)=O [Example 298, (R)-4-(2-amino-1H-benzo[d]imidazol-4-yl)-N1-(3-amino-2-hydroxypropyl)-3-(2H-tetrazol-5-yl)-benzene-1,2-disulfonamide]",0.69
4,"Cn1cnc(CNS(=O)(=O)c2ccc(-c3cccc4sc(N)nc34)c(-c3nnn[nH]3)c2S(N)(=O)=O)n1 [Example 20, 4-(2-amino-1,3-benzothiazol-4-yl)-N^1-[(1-methyl-1H-1,2,4-triazol-3-yl)methyl]-3-(1H-tetrazol-5-yl)benzene-1,2-disulfonamide]",1.00
5,"NCC1CCCCN1S(=O)(=O)c1ccc(-c2cccc3sc(N)nc23)c(-c2nnn[nH]2)c1S(N)(=O)=O.O=C(O)C(F)(F)F (stereo not drawn) [Example 110, (1-((4-(2-aminobenzo[d]thiazol-4-yl)-2-sulfamoyl-3-(1H-tetrazol-5-yl)phenyl)sulfonyl)piperidin-2-yl)methanaminium 2,2,2-trifluoroacetate]",1.00
6,"N#Cc1cccc(-c2ccc(S(=O)(=O)N[C@@H]3CCNC3)c(S(N)(=O)=O)c2-c2nnn[nH]2)c1N [Example 132, (R)-2′-amino-3′-cyano-N4-(pyrrolidin-3-yl)-2-(1H-tetrazol-5-yl)-[1,1′-biphenyl]-3,4-disulfonamide]",4.00
7,"CCC1(NS(=O)(=O)c2ccc(-c3cccc4sc(N)nc34)c(-c3nnn[nH]3)c2S(N)(=O)=O)CCNC1 (stereo not drawn) [Example 56, 4-(2-amino-1,3-benzothiazol-4-yl)-N1-(3-ethylpyrrolidin-3-yl)-3-(1H-tetrazol-5-yl)benzene-1,2-disulfonamide]",1.00
8,"Nc1nc2c(-c3ccc(S(=O)(=O)NC4CN5CCC4CC5)c(S(N)(=O)=O)c3-c3nnn[nH]3)cccc2s1.O=C(O)C(F)(F)F (stereo not drawn) [Example 97, 3-(4-(2-aminobenzo[d]thiazol-4-yl)-2-sulfamoyl-3-(1H-tetrazol-5-yl)phenylsulfonamido) quinuclidin-1-ium 2,2,2-trifluoroacetate]",1.00
9,"Nc1nc2cccc(-c3ccc(S(=O)(=O)N4CCNCC4)c(S(N)(=O)=O)c3-c3nn[nH]n3)c2[nH]1 [Example 157, 3-(2-amino-3H-benzo[d]imidazol-4-yl)-6-(piperazin-1-ylsulfonyl)-2-(2H-tetrazol-5-yl)benzenesulfonamide]",4.00
10,"Nc1nc2cccc(-c3ccc(S(N)(=O)=O)c(S(N)(=O)=O)c3-c3nn[nH]n3)c2[nH]1 [Example 1, 4-(2-amino-3H-benzo[d]imidazol-4-yl)-3-(2H-tetrazol-5-yl)benzene-1,2-disulfonamide]",0.65
11,"NC1CCC(c2ccc(S(N)(=O)=O)c(S(N)(=O)=O)c2-c2nnn[nH]2)CC1 (stereo not drawn) [Example 165, 4-(4-aminocyclohexyl)-3-(1H-tetrazol-5-yl)benzene-1,2-disulfonamide]",4.00
12,"CN1CCC(NS(=O)(=O)c2ccc(-c3cccc4sc(N)nc34)c(-c3nnn[nH]3)c2S(N)(=O)=O)C1 (stereo not drawn) [Example 53, 4-(2-amino-1,3-benzothiazol-4-yl)-N1-(1-methylpyrrolidin-3-yl)-3-(1H-tetrazol-5-yl)benzene-1,2-disulfonamide]",1.00
13,"NC[C@@H](O)CNS(=O)(=O)c1ccc(-c2cccc3[nH]cnc23)c(-c2nn[nH]n2)c1S(N)(=O)=O [Example 301, (R)-4-(1H-benzo[d]imidazol-4-yl)-N1-(3-amino-2-hydroxypropyl)-3-(2H-tetrazol-5-yl)-benzene-1,2-disulfonamide]",1.00
14,"CNc1ccc(-c2ccc(S(=O)(=O)NCCN)c(S(N)(=O)=O)c2-c2nn[nH]n2)cn1 [Example 243, N^1-(2-aminoethyl)-4-(6-(methylamino)pyridin-3-yl)-3-(2H-tetrazol-5-yl)benzene-1,2-disulfonamide]",1.00
15,"Nc1nc2c(-c3ccc(S(=O)(=O)NC4CCNCC4)c(S(N)(=O)=O)c3-c3nnn[nH]3)cccc2s1 [Example 32, 4-(2-amino-1,3-benzothiazol-4-yl)-N1-piperidin-4-yl-3-(1H-tetrazol-5-yl)benzene-1,2-disulfonamide]",0.50
16,"NS(=O)(=O)c1c(S(=O)(=O)N[C@@H]2CCNC2)ccc(-c2cccc(-c3nc[nH]n3)c2)c1-c1nn[nH]n1 [Example 225, (R)-N4-(pyrrolidin-3-yl)-2-(2H-tetrazol-5-yl)-3′-(1H-1,2,4-triazol-3-yl)-[1,1′-biphenyl]-3,4-disulfonamide]",1.00
17,"CS(=O)(=O)Nc1nc2c(-c3ccc(S(=O)(=O)N4CCNCC4)c(S(N)(=O)=O)c3-c3nn[nH]n3)cccc2s1 [Example 156, 3-(2-(Methylsulfonamido)benzo[d]thiazol-4-yl)-6-(piperazin-1-ylsulfonyl)-2-(2H-tetrazol-5-yl)benzenesulfonamide]",2.00
18,"CN1CC[C@@H](NS(=O)(=O)c2ccc(-c3cccc4[nH]c(N)nc34)c(-c3nn[nH]n3)c2S(N)(=O)=O)C1 [Example 232, (R)-4-(2-amino-1H-benzo[d]imidazol-4-yl)-N^1-(1-methylpyrrolidin-3-yl)-3-(2H-tetrazol-5-yl)benzene-1,2-disulfonamide]",2.00
19,"NCCNS(=O)(=O)c1ccc(-c2cccc(C(=O)NC[C@@H](N)CO)c2N)c(-c2nn[nH]n2)c1S(N)(=O)=O [Example 332, (R)-2-amino-N-(2-amino-3-hydroxypropyl)-4′-(N-(2-aminoethyl)sulfamoyl)-3′-sulfamoyl-2′-(2H-tetrazol-5-yl)-[1,1′-biphenyl]-3-carboxamide]",1.00
20,"CN1CCN(S(=O)(=O)c2ccc(-c3cccc4sc(N)nc34)c(-c3nnn[nH]3)c2S(N)(=O)=O)CC1 [Example 27, 3-(2-amino-1,3-benzothiazol-4-yl)-6-[(4-methylpiperazin-1-yl)sulfonyl]-2-(1H-tetrazol-5-yl)benzenesulfonamide]",2.00
21,"CN(C)C(=O)CNS(=O)(=O)c1ccc(-c2cccc3sc(N)nc23)c(-c2nnn[nH]2)c1S(N)(=O)=O [Example 36, N^2-{[4-(2-amino-1,3-benzothiazol-4-yl)-2-sulfamoyl-3-(1H-tetrazol-5-yl)phenyl]sulfonyl}-N,N-dimethylglycinamide]",1.00
22,"Nc1ccc2cccc(-c3ccc(S(=O)(=O)N[C@@H]4CNC[C@@H]4N)c(S(N)(=O)=O)c3-c3nn[nH]n3)c2n1 [Example 319, N^1-((3R,4S)-4-aminopyrrolidin-3-yl)-4-(2-aminoquinolin-8-yl)-3-(2H-tetrazol-5-yl)benzene-1,2-disulfonamide]",1.00
23,"NS(=O)(=O)c1c(S(=O)(=O)N[C@@H]2CCNC2)ccc(-c2cccc3nonc23)c1-c1nn[nH]n1 [Example 238, (R)-4-(benzo[c][1,2,5]oxadiazol-4-yl)-N^1-(pyrrolidin-3-yl)-3-(2H-tetrazol-5-yl)benzene-1,2-disulfonamide]",4.00
24,"Nc1nc2c(-c3ccc(S(=O)(=O)NC4CCC5OC4CC5N)c(S(N)(=O)=O)c3-c3nnn[nH]3)cccc2s1.O=C(O)C(F)(F)F (stereo not drawn) [Example 95, 2-(4-(2-aminobenzo[d]thiazol-4-yl)-2-sulfamoyl-3-(1H-tetrazol-5-yl)phenylsulfonamido)-8-oxabicyclo[3.2.1] octan-6-aminium 2,2,2-trifluoroacetate]",1.00
25,"C[C@@H](CN)NS(=O)(=O)c1ccc(-c2cccc3[nH]c(N)nc23)c(-c2nn[nH]n2)c1S(N)(=O)=O [Example 186, 4-(2-amino-1H-benzo[d]imidazol-4-yl)-N^1—((S)-1-aminopropan-2-yl)-3-(2H-tetrazol-5-yl)benzene-1,2-disulfonamide]",2.00
26,"CN(C)CC(F)(F)CNS(=O)(=O)c1ccc(-c2cccc3sc(N)nc23)c(-c2nnn[nH]2)c1S(N)(=O)=O [Example 16, 4-(2-amino-1,3-benzothiazol-4-yl)-N1-[3-(dimethylamino)-2,2-difluoropropyl]-3-(1H-tetrazol-5-yl)benzene-1,2-disulfonamide]",16.00
27,"NC(=O)c1ccc(-c2ccc(S(=O)(=O)N[C@@H]3CCNC3)c(S(N)(=O)=O)c2-c2nnn[nH]2)cc1 [Example 137, (R)-4′-(N-(pyrrolidin-3-yl)sulfamoyl)-3′-sulfamoyl-2′-(1H-tetrazol-5-yl)-[1,1′-biphenyl]-4-carboxamide]",1.00
28,"C[C@H](CN)NS(=O)(=O)c1ccc(-c2cncc(N)c2)c(-c2nn[nH]n2)c1S(N)(=O)=O [Example 221, (R)—N1-(1-aminopropan-2-yl)-4-(5-aminopyridin-3-yl)-3-(2H-tetrazol-5-yl)benzene-1,2-disulfonamide]",1.00
29,"Nc1nc2c(-c3ccc(S(=O)(=O)N[C@H]4CN[C@H](CO)C4)c(S(N)(=O)=O)c3-c3nnn[nH]3)cccc2s1 [Example 78, 4-(2-amino-1,3-benzothiazol-4-yl)-N1-[(3R,5S)-5-(hydroxymethyl)pyrrolidin-3-yl]-3-(1H-tetrazol-5-yl)benzene-1,2-disulfonamide]",0.50
30,"Nc1ccc2cccc(-c3ccc(S(N)(=O)=O)c(S(N)(=O)=O)c3-c3nn[nH]n3)c2n1 [Example 2, 4-(2-aminoquinolin-8-yl)-3-(2H-tetrazol-5-yl)benzene-1,2-disulfonamide]",1.00
